The values that follow come from US5250561A, “Tetrahydroindazole, tetrahydrocyclopentapyrazole, and hexahydrocycloheptapyrazole compounds and their use as HMG-COA reductase inhibitors” (Ortho Pharmaceutical Corporation, priority 1992, dated 1993).

Test [1] addresses HMG-CoA reductase. As to the kind of experiment: HMG-CoA Reductase Isolation And Assay (ammonium sulfate precipitated enzyme from rat liver). Type of test: biochemical, male Wistar rats. To be noted: racemic mixture. The method, then: Livers were harvested from male Wistar rats (250 g) following a five day feeding with powdered chow containing 2% cholestyramine. Ammonium sulfate precipitated HMG-CoA reductase was prepared from these livers according to the method of Heller, et. al. (Heller, R. A. Shrewsbury, M. A. Journal of Biological Chemistry, 251, 1976, 3815-3822). HMG-CoA reductase activity was measured using a modification of the procedure of Edwards, et. al. (Edwards, P. A., Lemongello, […]. Journal of Lipid Research, 20, 1979, 40-46). The effects of compounds on HMG-CoA reductase activity were determined by combining the compound with the enzyme and preincubating for 10 minutes prior to addition of the substrate […].

Test [2] has as its system Hep-G2 cells. As to the kind of experiment: Cell Culture Cholesterol Biosynthesis Assay. In kind it is cell-based. To be noted: Homo sapiens, racemic mixture. The method, then: When the cells were 2/3 confluent, they were fed MEM containing Earles salts and delipidated serum protein (DLP) at 5 mg/mL and then incubated for a period of 24 h. DLP was prepared according to the procedure of Rothblat, et. al. ([…]., Howard, B. V. In Vitro (Rockville), 12, 1976, 554-557). The DLP medium was then removed and 3.3 mL of media containing the drug indicated was added. […] Fatty acids were extracted and digitonin precipitable sterols were recovered according the procedure of Kanduch and Saucier (Kandutch, A. A., Saucier, S. E. Journal of Biological Chemistry, 244, 1969, 2299-2305). To adjust for cell number per flask, the cholesterol synthesized was normalized to the fatty acids synthesized and results were expressed as percent inhibition vs. control.

For test [3] the following is noted: cited from earlier work.
Test [4] has as its system HMG-CoA reductase. Conditions: lovastatin: open dihydroxy acid form; cited from earlier work.

The IC50 is the concentration needed to halve the response being measured. Turning to `O=C(O)C[C@H](O)C[C@H](O)/C=C/c1c2c(nn1-c1ccc(F)cc1)C(Cc1ccc(F)cc1)CCC2` (some centres unmarked) [Compound 17], the half-maximal inhibitory concentration (IC50) came out at 150 nM in test [1] (Table III) and 700 nM in test [2] (HepG2, Table III).

Consider `CC(C)c1ccc(CC2CCCc3c2nn(-c2ccc(F)cc2)c3/C=C/[C@@H](O)C[C@@H](O)CC(=O)O)cc1` (some centres unmarked) [Compound 18], for which the IC50 in test [1] (Table III) was 14 nM; in test [2] (HepG2, Table III) it was 260 nM.

For the compound `Cc1ccc(CC2CCCc3c2nn(-c2ccc(F)cc2)c3/C=C/[C@@H](O)C[C@@H](O)CC(=O)O)cc1` (some centres unmarked) [Compound 19], the IC50 came to 19 nM in test [1] (Table III) and 130 nM in test [2] (HepG2, Table III).

Consider `COc1ccc(CC2CCCc3c2nn(-c2ccc(F)cc2)c3/C=C/[C@@H](O)C[C@@H](O)CC(=O)O)cc1` (some centres unmarked) [Compound 20], for which the IC50 in test [1] (Table III) is 14 nM; in test [2] (HepG2, Table III), 460 nM.

For the compound `CC(C)(C)c1ccc(CC2CCCc3c2nn(-c2ccc(F)cc2)c3/C=C/[C@@H](O)C[C@@H](O)CC(=O)O)cc1` (some centres unmarked) [Compound 21], the IC50 was 16 nM in test [1] (Table III) and 135 nM in test [2] (HepG2, Table III).

In the case of `O=C(O)C[C@H](O)C[C@H](O)/C=C/c1c2c(nn1-c1ccc(F)cc1)C(Cc1ccccc1)CCC2` (some centres unmarked) [Compound 31], the IC50 in test [1] (Table III) is 85 nM; in test [2] (HepG2, Table III), 220 nM.

As for `O=C(O)C[C@H](O)C[C@H](O)/C=C/c1c2c(nn1-c1ccc(F)cc1)C(CCc1ccccc1)CCC2` (some centres unmarked) [Compound 32], the IC50 in test [1] (Table III) amounted to 334 nM; in test [2] (HepG2, Table III), 1750 nM.

Regarding `O=C(O)C[C@H](O)C[C@H](O)/C=C/c1c2c(nn1-c1ccc(F)cc1)C(CCCc1ccccc1)CCC2` (some centres unmarked) [Compound 33], the IC50 in test [1] (Table III) is 160 nM; in test [2] (HepG2, Table III) it was 1100 nM.

As for `O=C(O)C[C@H](O)C[C@H](O)/C=C/c1c2c(nn1-c1ccc(F)cc1)C(CC=Cc1ccccc1)CCC2` (some centres unmarked) [Compound 34], the IC50 in test [1] (Table III) was 32 nM; in test [2] (HepG2, Table III) it was 1300 nM.

In the case of `CCOC(=O)C[C@H](O)C[C@H](O)/C=C/c1c2c(nn1-c1ccc(F)cc1)C(Cc1cccc(OC)c1)CCC2` (some centres unmarked) [Compound 58], the IC50 in test [1] (Table IV) is 210 nM; in test [2] (HepG2, Table IV), 800 nM.

For `CCOC(=O)C[C@H](O)C[C@H](O)/C=C/c1c2c(nn1-c1ccc(F)cc1)C(Cc1ccc(C)cc1)CCC2` (some centres unmarked) [Compound 62], the concentration for half-maximal inhibition (IC50) worked out at 70 nM in test [1] (Table IV) and 200 nM in test [2] (HepG2, Table IV).

`CC(C)(C)c1ccc(CC2CCCc3c2nn(-c2ccc(F)cc2)c3/C=C/[C@@H]2C[C@@H](O)CC(=O)O2)cc1` (some centres unmarked) [Compound 82]: the IC50 in test [1] (Table V) was found to be 70 nM; in test [2] (HepG2, Table V), 230 nM.

For the compound `CC[C@H](C)C(=O)O[C@H]1C[C@@H](C)C=C2C=C[C@H](C)[C@H](CC[C@@H]3C[C@@H](O)CC(=O)O3)[C@H]21` [lovastatin], in test [3] (combination), the “effect of combined administration with other hypolipidemic agents on LDL and total cholesterol concentrations” value is “potentiate their effects on LDL and total cholesterol concentrations”. In addition, the “reduction of LDL cholesterol levels compared with cholestyramine and probucol” value in test [3] (primary hypercholesterolemia) was “reduced LDL cholesterol levels to a significantly greater extent”. The “increase in high density lipoprotein (HDL) cholesterol concentration” value in test [3] (several large clinical studies) is recorded as “up to 10%”. Moreover, the “inhibition of HMG-CoA reductase (in words)” value in test [4] is given as “reversible, competitive inhibitor of the enzyme”.

In the case of `CCC(C)(C)C(=O)O[C@H]1C[C@@H](C)C=C2C=C[C@H](C)[C@H](CC[C@@H]3C[C@@H](O)CC(=O)O3)[C@H]21` [simvastatin], the “inhibition of HMG-CoA reductase (in words)” value in test [4] was “inhibitors of HMG-CoA reductase”.
